Legend:
[1] = molecular target: T1, Macrophage metalloelastase (Homo sapiens, UniProt P39900); experiment: Dissociation Constants (KD) Measurements and Enzyme Inhibition Assay (IC50); conditions: pH 7; 25 °C
Description: The NMR experiments were performed to determine the binding affinity (KD) for the MMP-12 catalytic domain. The alteration of the chemical shifts induced on 2D 1H-15N HSQC upon the titration with the test compound was analyzed. The fit of the experimental data as a function of ligand concentration provided dissociation constant. The inhibition potency (IC50) was measured by fluorescent enzymatic assays. The compounds were evaluated for their ability to inhibit the hydrolysis of fluorescence-quenched peptide substrate. […] Fitting of hydrolysis rate as a function of inhibitor concentration provided IC50.

Collagenase 3 = Collagenase 3 (Homo sapiens, UniProt P45452); experiment: Inhibition Potency Measurements; conditions: pH 7; 25 °C
Description: (§1) The inhibition potency (IC50) was measured by fluorescent enzymatic assays. The compounds were evaluated for their ability to inhibit the hydrolysis of fluorescence-quenched peptide substrate. […] Fitting of hydrolysis rate as a function of inhibitor concentration provided IC50.

Interstitial collagenase = molecular target: T2, Interstitial collagenase (Homo sapiens, UniProt P03956); experiment: Inhibition Potency Measurements; conditions: pH 7; 25 °C
T2 sequence (P03956 whole entry): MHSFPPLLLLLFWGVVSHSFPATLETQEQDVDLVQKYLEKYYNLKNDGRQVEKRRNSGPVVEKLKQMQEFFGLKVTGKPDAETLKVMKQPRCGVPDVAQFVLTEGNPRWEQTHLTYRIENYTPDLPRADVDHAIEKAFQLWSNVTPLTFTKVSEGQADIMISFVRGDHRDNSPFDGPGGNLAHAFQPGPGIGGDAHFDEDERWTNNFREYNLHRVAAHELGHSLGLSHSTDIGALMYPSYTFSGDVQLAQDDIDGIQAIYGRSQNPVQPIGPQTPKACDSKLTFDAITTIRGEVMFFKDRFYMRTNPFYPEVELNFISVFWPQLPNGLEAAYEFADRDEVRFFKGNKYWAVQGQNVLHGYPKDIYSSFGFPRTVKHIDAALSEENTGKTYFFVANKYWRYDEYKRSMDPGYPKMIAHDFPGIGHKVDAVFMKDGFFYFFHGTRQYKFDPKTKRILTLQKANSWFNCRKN
Description: as §1

Matrilysin = molecular target: T3, Matrilysin (Homo sapiens, UniProt P09237); experiment: Inhibition Potency Measurements; conditions: pH 7; 25 °C
T3 sequence (P09237 whole entry): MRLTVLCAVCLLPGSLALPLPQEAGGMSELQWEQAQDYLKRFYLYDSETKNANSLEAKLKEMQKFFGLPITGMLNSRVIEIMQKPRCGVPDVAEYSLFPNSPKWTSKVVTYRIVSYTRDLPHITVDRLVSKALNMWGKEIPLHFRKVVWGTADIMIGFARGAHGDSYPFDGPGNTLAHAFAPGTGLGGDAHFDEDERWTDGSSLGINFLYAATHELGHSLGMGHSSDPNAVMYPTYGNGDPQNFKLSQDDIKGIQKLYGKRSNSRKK
Description: as §1

Neutrophil collagenase = Neutrophil collagenase (Homo sapiens, UniProt P22894); experiment: Inhibition Potency Measurements; conditions: pH 7; 25 °C
Sequence of Neutrophil collagenase (P22894 whole entry): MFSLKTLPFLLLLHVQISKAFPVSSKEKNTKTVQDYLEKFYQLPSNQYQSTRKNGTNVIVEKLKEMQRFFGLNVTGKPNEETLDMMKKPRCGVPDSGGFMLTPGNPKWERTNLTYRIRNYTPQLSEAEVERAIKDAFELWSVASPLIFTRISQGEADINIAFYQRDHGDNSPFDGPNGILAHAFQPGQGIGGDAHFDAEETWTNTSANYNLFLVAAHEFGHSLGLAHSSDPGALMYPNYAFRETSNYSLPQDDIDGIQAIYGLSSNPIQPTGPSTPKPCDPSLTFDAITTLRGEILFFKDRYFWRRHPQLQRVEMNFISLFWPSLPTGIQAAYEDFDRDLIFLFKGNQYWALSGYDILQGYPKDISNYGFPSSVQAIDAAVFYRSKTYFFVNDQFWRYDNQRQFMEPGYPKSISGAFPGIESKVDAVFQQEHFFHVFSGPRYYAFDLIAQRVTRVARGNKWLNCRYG
Description: as §1

Stromelysin-2 = Stromelysin-2 (Homo sapiens, UniProt P09238); experiment: Inhibition Potency Measurements; conditions: pH 7; 25 °C
Sequence of Stromelysin-2 (P09238 whole entry): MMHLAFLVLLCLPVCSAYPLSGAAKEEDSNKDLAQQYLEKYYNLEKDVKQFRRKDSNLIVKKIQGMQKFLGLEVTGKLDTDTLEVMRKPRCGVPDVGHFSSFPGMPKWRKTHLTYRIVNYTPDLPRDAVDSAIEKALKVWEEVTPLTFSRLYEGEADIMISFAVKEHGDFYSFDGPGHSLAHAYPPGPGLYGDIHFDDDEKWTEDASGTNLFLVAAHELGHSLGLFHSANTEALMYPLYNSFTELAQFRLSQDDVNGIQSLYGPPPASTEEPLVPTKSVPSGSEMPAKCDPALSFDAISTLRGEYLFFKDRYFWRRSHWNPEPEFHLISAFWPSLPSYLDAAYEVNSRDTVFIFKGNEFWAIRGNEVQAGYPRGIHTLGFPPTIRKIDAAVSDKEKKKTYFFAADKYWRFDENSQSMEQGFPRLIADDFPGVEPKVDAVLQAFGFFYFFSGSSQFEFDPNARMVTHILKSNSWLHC
Description: as §1

[2] = molecular target: T1, Macrophage metalloelastase; experiment: Dissociation Constants (KD) Measurements; conditions: pH 7.2; 25 °C
Description: The NMR experiments were performed to determine the binding affinity (KD) for the MMP-12 catalytic domain. The alteration of the chemical shifts induced on 2D 1H-15N HSQC upon the titration with the test compound was analyzed. The fit of the experimental data as a function of ligand concentration provided dissociation constant.

T1 sequence (P39900 whole entry, the tested form may be a part): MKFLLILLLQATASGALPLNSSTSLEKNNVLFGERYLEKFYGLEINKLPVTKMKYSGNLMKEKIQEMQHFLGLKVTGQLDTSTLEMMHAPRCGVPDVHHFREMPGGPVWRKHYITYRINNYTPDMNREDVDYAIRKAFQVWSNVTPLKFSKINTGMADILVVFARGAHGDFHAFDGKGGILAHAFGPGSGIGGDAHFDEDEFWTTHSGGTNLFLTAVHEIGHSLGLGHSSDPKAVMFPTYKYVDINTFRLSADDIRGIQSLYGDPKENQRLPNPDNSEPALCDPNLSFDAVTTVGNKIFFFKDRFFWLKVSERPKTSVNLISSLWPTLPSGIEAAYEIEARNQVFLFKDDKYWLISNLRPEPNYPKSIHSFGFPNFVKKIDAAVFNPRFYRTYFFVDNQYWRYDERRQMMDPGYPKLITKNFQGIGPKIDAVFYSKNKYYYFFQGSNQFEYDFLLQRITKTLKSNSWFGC

| SMILES | IC50 [1] [µM] | Kd [1] [µM] | Kd [2] [µM] | other results |
| --- | --- | --- | --- | --- |
| O=C(O)[C@@H]1O[C@H]2CN(Cc3ccc(-c4ccccc4)cc3)C[C@@H]1O2 [(1S,5S,7R)-3-[(4-phenylphenyl)methyl]-6,8-dioxa-3-azabicyclo[3.2.1]octane-7-carboxylic acid] | 835 | > 1000 |  |  |
| O=C(NCc1ccc(-c2ccccc2)cc1)[C@@H]1O[C@H]2CN(C(=O)NO)C[C@@H]1O2 [(1S,5S,7R)-3-N-hydroxy-7-N-[(4-phenylphenyl)methyl]-6,8-dioxa-3-azabicyclo[3.2.1]octane-3,7-dicarboxamide] |  |  |  | IC50 (Collagenase 3): 778 µM; IC50 (Interstitial collagenase): 1180 µM; IC50 (Matrilysin): 1510 µM; IC50 (Neutrophil collagenase): 513 µM; IC50 (Stromelysin-2): 865 µM |
| O=C(NO)[C@@H]1O[C@H]2CN(Cc3ccccc3)C(=O)[C@@H]1O2 [(1R,5S,7R)-3-benzyl-N-hydroxy-2-oxo-6,8-dioxa-3-azabicyclo[3.2.1]octane-7-carboxamide] |  |  | > 10000 |  |
| CCOC(=O)C1CCN(C(=O)NO)CC1 [ethyl 1-(hydroxycarbamoyl)piperidine-4-carboxylate] |  |  | 3400 |  |
| O=C(NO)[C@@H]1O[C@H]2CN(Cc3ccc(-c4ccccc4)cc3)C[C@@H]1O2 [(1S,5S,7R)-N-hydroxy-3-[(4-phenylphenyl)methyl]-6,8-dioxa-3-azabicyclo[3.2.1]octane-7-carboxamide] | 399 | > 500 |  |  |
| O=C(O)[C@@H]1O[C@H]2CN(Cc3ccc(-c4ccccc4)cc3)C(=O)[C@@H]1O2 [(1R,5S,7R)-2-oxo-3-[(4-phenylphenyl)methyl]-6,8-dioxa-3-azabicyclo[3.2.1]octane-7-carboxylic acid] | 954 | > 1000 |  |  |
| O=C(O)[C@@H]1O[C@H]2CN(Cc3ccccc3)C[C@@H]1O2 [(1S,5S,7R)-3-benzyl-6,8-dioxa-3-azabicyclo[3.2.1]octane-7-carboxylic acid] |  |  | > 10000 |  |
| O=C(O)[C@@H]1O[C@H]2CN(Cc3ccccc3)C(=O)[C@@H]1O2 [(1R,5S,7R)-3-benzyl-2-oxo-6,8-dioxa-3-azabicyclo[3.2.1]octane-7-carboxylic acid] |  |  | > 10000 |  |
| O=C(NO)[C@@H]1O[C@H]2CN(Cc3ccc(-c4ccccc4)cc3)C(=O)[C@@H]1O2 [(1R,5S,7R)-N-hydroxy-2-oxo-3-[(4-phenylphenyl)methyl]-6,8-dioxa-3-azabicyclo[3.2.1]octane-7-carboxamide] | 425 | > 500 |  |  |
